Reference: publication PMC9027111, “Morphing Natural Product Platensimycin via Heck, Sonogashira, and One-Pot Sonogashira/Cycloaddition Reactions to Produce Antibiotics with In Vivo Activity” (Antibiotics, 2022)
Converted amounts (≈) assume the structure as drawn. Like-named read-outs stand apart in the source and are kept apart here.

How the values were obtained:
[1] = design: method as in PMID 31244223; conditions: pooled human liver microsomes; previously reported ref 14; cited from earlier work
[2] = design: method as in PMID 31244223; conditions: previously reported ref 14; cited from earlier work
[3] = test system: S. aureus ATCC 29213; assay: MIC determination (LB agar dilution), S. aureus ATCC 29213; type: cell-based; conditions: Staphylococcus aureus, ATCC29213, at least two replicates
Method: (§1) All of the tested compounds were prepared to different concentrations with methanol, and 150 μL of the respective methanol solution was used to mix with 15 mL LB (Luria–Bertani) medium with 1% agar in each Petri dish. Linezolid and PTM were used as reference compounds for comparison. In vitro bioassay for compounds was carried out using clinical strains of S. aureus, E. coli, and Klebsilla pneumoniae. The bacteria were cultivated in LB medium and incubated for 16 h at 37 °C, 250 rpm. The resulting bacteria were diluted to approximate 0.25 at OD600, which were further diluted 10_4-fold. The diluted bacteria (2 μL) were added to Petri dish containing the respective compounds. The resulting Petri dishes were incubated for 16 h at 37 °C. The determination of MIC is the concentration of Petri dishes with no visible growth of bacteria.

[4] = test system: MSSA 1; assay: MIC determination (LB agar dilution), clinical MSSA strain 1; type: cell-based; conditions: Staphylococcus aureus, at least two replicates
Method: as §1

[5] = test system: MSSA 2; assay: MIC determination (LB agar dilution), clinical MSSA strain 2; type: cell-based; conditions: Staphylococcus aureus, at least two replicates
Method: as §1

[6] = test system: MRSA 3; assay: MIC determination (LB agar dilution), clinical MRSA strain 3; type: cell-based; conditions: Staphylococcus aureus, at least two replicates
Method: as §1

[7] = test system: MRSA 4; assay: MIC determination (LB agar dilution), clinical MRSA strain 4; type: cell-based; conditions: Staphylococcus aureus, at least two replicates
Method: as §1

[8] = Metabolic stability assay in pooled human liver microsomes; type: in vitro ADME; conditions: pH 7.4, 37 °C, NADPH, read-out: Half-Life in Human Hepatic Microsomes
Method: Each compound was incubated in duplicate with pooled human liver microsomes at 37 °C. The tested compounds were pre-incubated with pooled human liver microsomes in phosphate buffer (pH 7.4) for 5 min in a shaking water bath at 37 °C. The reaction was initiated by adding a NADPH-generating system and incubated for 0, 15, 30, 45, and 60 min. The reaction was stopped by transferring the incubation mixture to CH3CN/MeOH. Samples were then mixed and centrifuged. Supernatants were used for HPLC–MS/MS analysis. Data were calculated as percent parent compounds remaining by assuming zero-minute time point peak area ratio (analyte/IS) as 100% and dividing remaining time point peak area ratios by the zero-minute time point peak area ratio. Data were subjected to fit a first-order decay model to calculate both the slope and half-life.

[9] = Plasma protein binding by equilibrium dialysis; type: in vitro ADME; conditions: 37 °C; for Plasma Protein Binding Bound %: 5 μM, 6 h; for fraction unbound at 6 h, 5 μM: plasma, read-out: Plasma Protein Binding Free %
Method: Equilibrium dialysis was used to determine the plasma protein binding. All of the test compounds were treated in triplicate by RED Rapid Equilibrium Dialysis Device (Thermo Scientific, Waltham, MA, USA). In brief, the initial compound concentration (5 μM) in the plasma chamber was first set, followed by the addition of phosphate buffered saline (PBS) to the receiver chamber. The Equilibrium Dialysis Device was allowed to shake for 6 h in a 37 °C incubator. Then, 25 μL solution was sampled from the plasma and PBS chambers, respectively, and they were diluted with either blank PBS or plasma to achieve a 1:1 ratio of plasma: PBS for all samples. The concentrations of the tested compounds in the plasma and PBS chambers were determined by LC–MS/MS. The fraction bound was calculated as ([plasma]—[PBS])/[plasma].

[10] = test system: MRSA; type: in vivo; conditions: for survival rate of the infected mice: 7 days; for survival of infected mice: tracked 7 days; for survival of infected mice / mice died within 24 h: n = 5
[11] = test system: MRSA; assay: Mouse skin infection with MRSA; type: in vivo, BABL/c mice; conditions: for load of S. aureus on treated skin: n = 5/group; for healing of the infected skin: topical twice a day for 7 days, observation and H&E staining
Method: Mouse MRSA skin infection study was performed as described before. Female BABL/c mice (20–22 g, 7-weeks old) were anesthetized by intraperitoneal injection of 4% chloral hydrate (200 μL), and the hair of mice back surface was removed and washed with povidone iodine–propanol solution. A gauze (15 × 15 mm) was preheated in boiling water (90 °C) for 10 min, and then placed on the back of each mouse for 40 s to generate the burns. Next, the burn was bound with sterile gauze and infected with 1 × 10^8 colony-forming units (CFU) of MRSA. An open wound was witnessed at the burns after 48 h post infection. The infected mice were then divided into three groups (5 per group). A4 (200 μg) was formulated into 2% ointment consisting of 1.4% carbomer, 1.4% triethanolamine, 14% propanediol, 14% glycerinum, and 1% azone. Mupirocin (2% w/w) were used as the positive control, while vehicle used as negative control. All mice were treated twice a day for 7 days. Mice were euthanized after 24 h of the last treatment, and the wound area was slightly swabbed with 70% ethanol. Wound area (1 cm^2) was excised, homogenized, and plated onto TSB agar plates to count viable bacteria. Other skin biopsy specimens removed from the wounds were stored at 4% paraformaldehyde solution to be used for hematoxylin and eosin (HE) staining.

[12] = Stability of A4 in LB agar; type: physicochemical; conditions: 8 μg mL−1 in LB agar, 37 °C, 16 h, UPLC
Method: Figure S44. Analysis of the stability of A4 from LB agar. Compound A4 (0.1 mg mL−1)
were diluted in 5 mL of LB agar (1.5% v/v) to 8 μg mL−1, and the LB agar plates were
then incubated at 37 °C for 16 h. The LB agar containing A4 was extracted by DCM (3 ×
10 mL), dried with anhydrous Na2SO4 and concentrated in vacuum. The resulting
extracts were analysed by Ultra-Performance Liquid Chromatography.
(1 picture or pasted object on this page, not shown here)

[13] = 10 mg/kg intraperitoneal at 1 h and 5 h after infection
[14] = 2 mg topical twice a day for 7 days

Compound | MIC [3] [µg/mL] | MIC [4] [µg/mL] | MIC [5] [µg/mL] | MIC [6] [µg/mL] | MIC [7] [µg/mL] | half-life [8] [min] | Plasma Protein Binding Bound % [9] [%] | fraction unbound at 6 h, 5 μM [9] | other results
CCSC1CC(=O)C(C)(CCC(=O)Nc2c(O)ccc(C(=O)O)c2O)C2C3CC4CC12CC4(C)O3 (centres unmarked) [1a, PTM-2t] |  |  |  |  |  |  |  |  | Half-Life in Human Hepatic Microsomes [1]: 22 min; Plasma Protein Binding Bound % [2]: 35%; Plasma Protein Binding Free % [2]: 65%
CC(C)(C)OC(=O)C=CC1=CC23CC4CC(OC4(C)C2)C3C(C)(CCC(=O)Nc2c(O)ccc(C(=O)O)c2O)C1=O (centres unmarked) [A4] | 1 (≈ 1.76 µM) | 1 (≈ 1.76 µM) | 1 (≈ 1.76 µM) | 1 (≈ 1.76 µM) | 1 (≈ 1.76 µM) | 26 | 98.3 | 0.017 | survival rate of the infected mice ([10]; 5 mg/kg intraperitoneal at 1 h and 5 h after infection): 60%; survival of infected mice [10, 13]: 60%; survival rate of the infected mice ([10]; 20 mg/kg intraperitoneal at 1 h and 5 h after infection): 80%; survival rate of the infected mice ([10]; 30 mg/kg intraperitoneal at 1 h and 5 h after infection): 60%; survival of infected mice ([10]; 50 mg/kg intraperitoneal at 1 h and 5 h after infection): 20%; survival of infected mice after oral administration ([10]; 30 and 50 mg/kg by oral gavage): most of the treated mice survived within 48 h; reduction of MRSA on the skin compared to untreated mice [11, 14]: ~ 790 fold; load of S. aureus on treated skin [11, 14]: (1.0 ± 0.3) × 10^6 CFU/g; healing of the infected skin [11]: showed the healing of the skin; stability in LB agar [12]: relatively stable
CC12CC34C=C(C=CC(=O)N5CCOCC5)C(=O)C(C)(CCC(=O)Nc5c(O)ccc(C(=O)O)c5O)C3C(CC1C4)O2 (centres unmarked) [A10] | 16 (≈ 27.6 µM) | 16 (≈ 27.6 µM) | 16 (≈ 27.6 µM) | 16 (≈ 27.6 µM) | 16 (≈ 27.6 µM) | > 120 | 77 | 0.23 | 
CC12CC34C=C(C#Cc5cccc(F)c5)C(=O)C(C)(CCC(=O)Nc5c(O)ccc(C(=O)O)c5O)C3C(CC1C4)O2 (centres unmarked) [B8] | 1 (≈ 1.79 µM) | 1 (≈ 1.79 µM) | 1 (≈ 1.79 µM) | 1 (≈ 1.79 µM) | 1 (≈ 1.79 µM) | 96 | 99.4 | 0.006 | mice died within 24 h [10, 13]: 40%
CC(=O)C1=C(C)OC(Cc2ccc(F)cc2)=C2C(=O)C(C)(CCC(=O)Nc3c(O)ccc(C(=O)O)c3O)C3C4CC5CC3(CC5(C)O4)C12 (centres unmarked) [C6] | 32 (≈ 48.5 µM) | 32 (≈ 48.5 µM) | 32 (≈ 48.5 µM) | 32 (≈ 48.5 µM) | 32 (≈ 48.5 µM) | 17 | 99.6 | 0.004 | 
CC12C[C@@]34C=CC(=O)[C@@](C)(CCC(=O)Nc5c(O)ccc(C(=O)O)c5O)C3[C@H](CC1C4)O2 (some centres unmarked) [PTM, Platensimycin] | 1 (≈ 2.27 µM) | 1 (≈ 2.27 µM) | 1 (≈ 2.27 µM) | 1 (≈ 2.27 µM) | 1 (≈ 2.27 µM) |  |  |  | survival of infected mice [10, 13]: died after MRSA infection within 24 h; Half-Life in Human Hepatic Microsomes [1]: 51 min; Plasma Protein Binding Free % [2]: 34%
CC12CC34C=C(I)C(=O)C(C)(CCC(=O)Nc5c(O)ccc(C(=O)O)c5O)C3C(CC1C4)O2 (centres unmarked) [compound 4, 6-iodo PTM] | 1 (≈ 1.76 µM) | 1 (≈ 1.76 µM) | 1 (≈ 1.76 µM) | 1 (≈ 1.76 µM) | 1 (≈ 1.76 µM) | 58 | 87 | 0.13 | mice died within 24 h [10, 13]: 40%
C/C(=C\C(=O)OCCCCCCCCC(=O)O)C[C@@H]1OC[C@H](C[C@@H]2O[C@H]2[C@@H](C)[C@H](C)O)[C@@H](O)[C@H]1O [mupirocin, reference compound] |  |  |  |  |  |  |  |  | load of S. aureus on treated skin [11, 14]: (6.5 ± 2.4) × 10^5 CFU/g; healing of the infected skin [11]: showed the healing of the skin
